From patent US10344060B2 (priority 2013, dated 2019) come the findings set out here.

For one assay, the target named is hNav1.7 (Homo sapiens, UniProt Q15858). Description: cell-based. To be noted: ratio of IonWorks Quattro IC50 values. Background: The patch-clamp technique gives a direct electrical read-out from membranes.
A further assay deals with hNav1.4 (Homo sapiens, UniProt P35499). Description: cell-based. The format is cell-based. The conditions noted are these: ratio of IonWorks Quattro IC50 values.
hNav1.4, sequence (P35499 whole entry): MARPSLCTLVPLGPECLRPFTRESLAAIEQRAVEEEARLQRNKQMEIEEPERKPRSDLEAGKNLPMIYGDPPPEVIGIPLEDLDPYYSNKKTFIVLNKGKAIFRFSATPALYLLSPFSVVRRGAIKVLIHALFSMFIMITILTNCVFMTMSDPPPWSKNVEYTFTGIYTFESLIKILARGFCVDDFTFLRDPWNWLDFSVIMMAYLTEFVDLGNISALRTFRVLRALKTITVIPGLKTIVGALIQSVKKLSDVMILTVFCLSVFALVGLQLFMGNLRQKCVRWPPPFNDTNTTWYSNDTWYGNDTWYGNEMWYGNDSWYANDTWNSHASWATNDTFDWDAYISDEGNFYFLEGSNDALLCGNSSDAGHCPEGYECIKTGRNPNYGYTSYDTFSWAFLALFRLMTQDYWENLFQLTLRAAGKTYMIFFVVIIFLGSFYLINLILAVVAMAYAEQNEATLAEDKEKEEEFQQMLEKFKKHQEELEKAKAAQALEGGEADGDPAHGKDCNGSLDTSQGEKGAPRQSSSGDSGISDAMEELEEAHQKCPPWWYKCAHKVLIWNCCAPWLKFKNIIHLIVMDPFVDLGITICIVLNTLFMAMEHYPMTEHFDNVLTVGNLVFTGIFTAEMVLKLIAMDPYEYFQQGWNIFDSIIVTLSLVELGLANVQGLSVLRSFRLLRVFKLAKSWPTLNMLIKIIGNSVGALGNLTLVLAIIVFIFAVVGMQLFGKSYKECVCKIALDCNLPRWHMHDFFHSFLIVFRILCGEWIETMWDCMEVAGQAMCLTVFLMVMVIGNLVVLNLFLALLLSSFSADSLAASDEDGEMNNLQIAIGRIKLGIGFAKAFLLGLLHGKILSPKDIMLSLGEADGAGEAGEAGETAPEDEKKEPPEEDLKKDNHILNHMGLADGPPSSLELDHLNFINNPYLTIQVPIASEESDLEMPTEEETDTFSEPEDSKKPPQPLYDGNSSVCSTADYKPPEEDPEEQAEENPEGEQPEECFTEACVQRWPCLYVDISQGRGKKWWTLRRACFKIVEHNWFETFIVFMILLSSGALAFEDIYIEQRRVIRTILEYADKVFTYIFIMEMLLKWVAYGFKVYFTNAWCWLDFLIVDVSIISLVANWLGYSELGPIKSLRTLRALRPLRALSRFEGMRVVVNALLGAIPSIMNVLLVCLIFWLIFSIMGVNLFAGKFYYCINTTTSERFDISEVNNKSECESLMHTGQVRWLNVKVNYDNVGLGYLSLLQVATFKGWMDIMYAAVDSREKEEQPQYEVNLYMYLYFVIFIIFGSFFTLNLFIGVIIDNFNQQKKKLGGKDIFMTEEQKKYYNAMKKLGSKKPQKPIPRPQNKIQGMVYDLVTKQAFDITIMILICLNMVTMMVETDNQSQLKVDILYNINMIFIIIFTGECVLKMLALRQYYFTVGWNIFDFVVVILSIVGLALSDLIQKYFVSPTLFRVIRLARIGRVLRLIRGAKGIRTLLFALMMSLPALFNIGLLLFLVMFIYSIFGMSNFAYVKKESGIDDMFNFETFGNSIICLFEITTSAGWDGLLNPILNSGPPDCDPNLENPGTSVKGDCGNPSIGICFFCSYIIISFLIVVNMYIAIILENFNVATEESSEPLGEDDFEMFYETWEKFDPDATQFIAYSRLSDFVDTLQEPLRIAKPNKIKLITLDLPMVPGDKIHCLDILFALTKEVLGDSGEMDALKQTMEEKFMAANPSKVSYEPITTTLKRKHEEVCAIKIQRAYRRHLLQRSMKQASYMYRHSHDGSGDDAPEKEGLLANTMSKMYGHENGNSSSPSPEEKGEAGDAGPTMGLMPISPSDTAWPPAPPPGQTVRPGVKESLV

hNav1.7, sequence (Q15858 whole entry): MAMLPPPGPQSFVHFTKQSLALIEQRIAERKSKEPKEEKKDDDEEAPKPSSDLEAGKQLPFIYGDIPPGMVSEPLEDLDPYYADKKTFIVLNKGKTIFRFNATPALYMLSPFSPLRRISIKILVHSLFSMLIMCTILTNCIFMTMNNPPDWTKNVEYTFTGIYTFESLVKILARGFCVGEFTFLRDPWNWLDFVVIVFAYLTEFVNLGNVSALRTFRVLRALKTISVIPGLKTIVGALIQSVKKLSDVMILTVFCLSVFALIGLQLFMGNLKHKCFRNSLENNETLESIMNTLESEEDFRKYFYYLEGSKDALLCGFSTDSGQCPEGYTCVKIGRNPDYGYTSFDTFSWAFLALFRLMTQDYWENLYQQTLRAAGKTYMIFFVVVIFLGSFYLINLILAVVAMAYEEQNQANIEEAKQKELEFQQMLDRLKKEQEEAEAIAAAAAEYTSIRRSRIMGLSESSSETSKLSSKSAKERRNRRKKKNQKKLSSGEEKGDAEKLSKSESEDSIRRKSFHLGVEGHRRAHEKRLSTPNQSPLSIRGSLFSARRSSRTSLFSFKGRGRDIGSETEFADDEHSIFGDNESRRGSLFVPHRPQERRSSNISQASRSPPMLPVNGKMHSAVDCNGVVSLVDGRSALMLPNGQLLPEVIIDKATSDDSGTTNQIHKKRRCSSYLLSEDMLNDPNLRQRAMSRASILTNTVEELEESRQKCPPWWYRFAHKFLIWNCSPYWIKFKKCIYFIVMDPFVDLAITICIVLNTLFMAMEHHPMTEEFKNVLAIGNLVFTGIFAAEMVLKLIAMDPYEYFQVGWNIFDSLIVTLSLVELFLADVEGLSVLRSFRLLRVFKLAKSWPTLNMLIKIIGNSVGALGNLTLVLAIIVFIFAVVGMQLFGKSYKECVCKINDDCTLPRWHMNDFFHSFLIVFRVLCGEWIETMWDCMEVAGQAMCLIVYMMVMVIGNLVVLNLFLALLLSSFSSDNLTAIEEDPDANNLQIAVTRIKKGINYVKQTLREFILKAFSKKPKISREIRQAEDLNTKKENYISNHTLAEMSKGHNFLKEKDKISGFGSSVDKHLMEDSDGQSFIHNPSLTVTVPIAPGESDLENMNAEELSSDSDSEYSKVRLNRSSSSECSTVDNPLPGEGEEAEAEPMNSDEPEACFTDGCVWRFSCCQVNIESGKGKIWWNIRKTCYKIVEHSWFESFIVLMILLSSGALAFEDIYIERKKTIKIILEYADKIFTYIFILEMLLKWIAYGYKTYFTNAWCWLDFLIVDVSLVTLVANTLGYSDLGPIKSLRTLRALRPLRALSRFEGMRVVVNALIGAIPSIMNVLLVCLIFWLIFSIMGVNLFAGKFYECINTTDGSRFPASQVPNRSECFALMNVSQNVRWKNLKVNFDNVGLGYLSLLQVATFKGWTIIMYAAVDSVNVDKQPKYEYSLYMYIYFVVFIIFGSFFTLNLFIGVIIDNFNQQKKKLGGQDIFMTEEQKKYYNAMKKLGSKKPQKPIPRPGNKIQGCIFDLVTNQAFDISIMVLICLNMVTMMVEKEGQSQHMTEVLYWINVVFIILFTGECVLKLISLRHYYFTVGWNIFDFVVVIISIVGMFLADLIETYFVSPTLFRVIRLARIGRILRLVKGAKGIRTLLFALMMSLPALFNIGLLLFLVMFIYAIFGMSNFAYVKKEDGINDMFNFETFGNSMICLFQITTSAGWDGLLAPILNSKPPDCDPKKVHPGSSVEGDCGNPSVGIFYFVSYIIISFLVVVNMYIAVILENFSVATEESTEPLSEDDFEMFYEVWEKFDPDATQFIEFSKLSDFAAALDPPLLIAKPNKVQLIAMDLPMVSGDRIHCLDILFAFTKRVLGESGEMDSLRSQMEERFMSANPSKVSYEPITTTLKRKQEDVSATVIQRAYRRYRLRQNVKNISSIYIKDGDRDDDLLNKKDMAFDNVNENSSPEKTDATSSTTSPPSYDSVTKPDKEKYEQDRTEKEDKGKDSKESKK

Consider `CC[C@H](C)[C@H](NC(=O)[C@H](Cc1ccc(O)cc1)NC(=O)[C@H](CCCCN)NC(=O)[C@H](CCCNC(=N)N)NC(=O)[C@@H]1CSSC[C@@H]2NC(=O)[C@H](C)NC(=O)[C@H](CCCNC(=N)N)NC(=O)[C@H](CCCCN)NC(=O)[C@H](CO)NC(=O)[C@H](CC(=O)O)NC(=O)[C@@H]3CSSC[C@H](NC(=O)[C@H](CCCNC(=N)N)NC(=O)[C@H](CC(C)C)NC(=O)CNC(=O)[C@H](CCC(=O)O)NC(=O)[C@H](CSSC[C@H](NC(=O)[C@@H](N)CCC(=O)O)C(=O)N[C@@H](CCC(N)=O)C(=O)N[C@@H](CCCCN)C(=O)N[C@@H](Cc4c[nH]c5ccccc45)C(=O)N[C@@H](CCSC)C(=O)N[C@@H](Cc4c[nH]c5ccccc45)C(=O)N[C@@H]([C@@H](C)O)C(=O)N3)NC2=O)C(=O)N[C@@H](CCCCN)C(=O)N[C@@H](CC(C)C)C(=O)N[C@@H](Cc2c[nH]c3ccccc23)C(=O)N1)C(N)=O` [compound 278], for which, on hNav1.7 (Table 8), the Nav1.4/Nav1.7 was 16.

Take `CC[C@H](C)[C@H](NC(=O)[C@@H](NC(=O)[C@H](CCCCN)NC(=O)[C@H](CCCNC(=N)N)NC(=O)[C@@H]1CSSC[C@@H]2NC(=O)[C@H](C)NC(=O)[C@H](CCCNC(=N)N)NC(=O)[C@H](CCCCN)NC(=O)[C@H](CO)NC(=O)[C@H](CC(=O)O)NC(=O)[C@@H]3CSSC[C@H](NC(=O)[C@H](CCC(=O)O)NC(=O)[C@H](CC(C)C)NC(=O)CNC(=O)[C@H](CCC(=O)O)NC(=O)[C@H](CSSC[C@H](NC(=O)[C@@H](N)Cc4cn(CCCOCCOCCOCCOCCOCCOCCOCCOCCOCCOCCN)nn4)C(=O)N[C@@H](CCC(N)=O)C(=O)N[C@@H](CCCCN)C(=O)N[C@@H](Cc4c[nH]c5ccccc45)C(=O)N[C@@H](CCSC)C(=O)N[C@@H](Cc4c[nH]c5ccccc45)C(=O)N[C@@H]([C@@H](C)O)C(=O)N3)NC2=O)C(=O)N[C@@H](CCCCN)C(=O)N[C@@H](CC(C)C)C(=O)N[C@@H](Cc2c[nH]c3ccccc23)C(=O)N1)[C@@H](C)CC)C(N)=O` [compound 165]: on hNav1.4 (Table 9), the Nav1.4/Nav1.7 came out at 28.

As to `CC[C@H](C)[C@H](NC(=O)[C@@H](NC(=O)[C@H](CCCCN)NC(=O)[C@H](CCCNC(=N)N)NC(=O)[C@@H]1CSSC[C@@H]2NC(=O)[C@H](C)NC(=O)[C@H](CCCNC(=N)N)NC(=O)[C@H](CCCCN)NC(=O)[C@H](CO)NC(=O)[C@H](CC(=O)O)NC(=O)[C@@H]3CSSC[C@H](NC(=O)[C@H](C(C)C)NC(=O)[C@H](CC(C)C)NC(=O)CNC(=O)[C@H](CCC(=O)O)NC(=O)[C@H](CSSC[C@H](NC(=O)[C@@H](N)Cc4ccc(O)cc4)C(=O)N[C@@H](CCC(N)=O)C(=O)N[C@@H](CCCCN)C(=O)N[C@@H](Cc4c[nH]c5ccccc45)C(=O)N[C@@H](CCSC)C(=O)N[C@@H](Cc4c[nH]c5ccccc45)C(=O)N[C@@H]([C@@H](C)O)C(=O)N3)NC2=O)C(=O)N[C@@H](CCCCN)C(=O)N[C@@H](CC(C)C)C(=O)N[C@@H](Cc2c[nH]c3ccccc23)C(=O)N1)[C@@H](C)CC)C(N)=O` [compound 120], on hNav1.7 (Nav1.4 over Nav1.7), the Nav1.4/Nav1.7 was 31.

As for `CCC[C@@H]1NC(=O)[C@H](Cc2c[nH]c3ccccc23)NC(=O)[C@H](CCCCN)NC(=O)[C@H](CCC(N)=O)NC(=O)[C@@H](NC(=O)[C@@H](N)Cc2ccc(O)cc2)CSSC[C@@H]2NC(=O)[C@@H]3CSSC[C@@H](C(=O)N[C@@H](CCCNC(=N)N)C(=O)N[C@@H](CCCCN)C(=O)N[C@H](C(=O)N[C@H](C(N)=O)[C@@H](C)CC)[C@@H](C)CC)NC(=O)[C@H](Cc4c[nH]c5ccccc45)NC(=O)[C@H](CC(C)C)NC(=O)[C@H](CCCCN)NC(=O)[C@H](CSSC[C@H](NC(=O)[C@H]([C@@H](C)O)NC(=O)[C@H](Cc4c[nH]c5ccccc45)NC1=O)C(=O)N[C@@H](CC(=O)O)C(=O)N[C@@H](CO)C(=O)N[C@@H](CCCCN)C(=O)N[C@@H](CCCNC(=N)N)C(=O)N[C@@H](C)C(=O)N3)NC(=O)[C@H](CCC(=O)O)NC(=O)[C@H](CC(C)C)NC(=O)CNC(=O)[C@H](CCC(=O)O)NC2=O` [compound 111], the Nav1.4/Nav1.7 on hNav1.7 (Nav1.4 over Nav1.7) is 7.

Take `CC[C@H](C)[C@H](NC(=O)[C@H](Cc1ccc(O)cc1)NC(=O)[C@H](CCCCN)NC(=O)[C@H](CCCNC(=N)N)NC(=O)[C@@H]1CSSC[C@@H]2NC(=O)[C@H](C)NC(=O)[C@H](CCCNC(=N)N)NC(=O)[C@H](CCCCN)NC(=O)[C@H](CO)NC(=O)[C@H](CC(=O)O)NC(=O)[C@@H]3CSSC[C@H](NC(=O)[C@H](CCC(=O)O)NC(=O)[C@H](CC(C)C)NC(=O)CNC(=O)[C@H](CCC(=O)O)NC(=O)[C@H](CSSC[C@H](NC(=O)[C@@H](N)Cc4ccc(O)cc4)C(=O)N[C@@H](CCC(N)=O)C(=O)N[C@@H](CCCCN)C(=O)N[C@@H](Cc4c[nH]c5ccccc45)C(=O)N[C@@H](CCSC)C(=O)N[C@@H](CC(N)=O)C(=O)N[C@@H]([C@@H](C)O)C(=O)N3)NC2=O)C(=O)N[C@@H](CCCCN)C(=O)N[C@@H](CC(C)C)C(=O)N[C@@H](Cc2c[nH]c3ccccc23)C(=O)N1)C(N)=O` [compound 215]: on hNav1.7 (Table 8), the Nav1.4/Nav1.7 is on record as 1.

Regarding `CC[C@H](C)[C@H](NC(=O)[C@@H](NC(=O)[C@H](CCCCN)NC(=O)[C@H](CCCNC(=N)N)NC(=O)[C@@H]1CSSC[C@@H]2NC(=O)[C@H](C)NC(=O)[C@H](CCCNC(=N)N)NC(=O)[C@H](CCCCN)NC(=O)[C@H](CO)NC(=O)[C@H](CC(=O)O)NC(=O)[C@@H]3CSSC[C@H](NC(=O)[C@H](CC(C)C)NC(=O)[C@H](CC(C)C)NC(=O)CNC(=O)[C@H](CCC(=O)O)NC(=O)[C@H](CSSC[C@H](NC(=O)[C@@H](N)Cc4ccc(O)cc4)C(=O)N[C@@H](CCC(N)=O)C(=O)N[C@@H](CCCCN)C(=O)N[C@@H](Cc4c[nH]c5ccccc45)C(=O)N[C@@H](CCSC)C(=O)N[C@@H](Cc4c[nH]c5ccccc45)C(=O)N[C@@H]([C@@H](C)O)C(=O)N3)NC2=O)C(=O)N[C@@H](CCCCN)C(=O)N[C@@H](CC(C)C)C(=O)N[C@@H](Cc2c[nH]c3ccccc23)C(=O)N1)[C@@H](C)CC)C(N)=O` [compound 119], the Nav1.4/Nav1.7 at hNav1.7 (Nav1.4 over Nav1.7) amounted to 14.

In the case of `CCC[C@@H]1NC(=O)[C@H](CC(C)C)NC(=O)CNC(=O)[C@H](CCC(=O)O)NC(=O)[C@@H]2CSSC[C@H](NC(=O)[C@@H](N)Cc3ccc(O)cc3)C(=O)N[C@@H](CCC(N)=O)C(=O)N[C@@H](CCCCN)C(=O)N[C@@H](Cc3c[nH]c4ccccc34)C(=O)N[C@@H](CCSC)C(=O)N[C@@H](Cc3c[nH]c4ccccc34)C(=O)N[C@@H]([C@@H](C)O)C(=O)N[C@H]3CSSC[C@H](NC1=O)C(=O)N[C@@H](CCCCN)C(=O)N[C@@H](CC(C)C)C(=O)N[C@@H](Cc1c[nH]c4ccccc14)C(=O)N[C@H](C(=O)N[C@@H](CCCNC(=N)N)C(=O)N[C@@H](CCCCN)C(=O)N[C@H](C(=O)N[C@H](C(N)=O)[C@@H](C)CC)[C@@H](C)CC)CSSC[C@H](NC(=O)[C@H](C)NC(=O)[C@H](CCCNC(=N)N)NC(=O)[C@H](CCCCN)NC(=O)[C@H](CO)NC(=O)[C@H](CC(=O)O)NC3=O)C(=O)N2` [compound 123], on hNav1.7 (Nav1.4 over Nav1.7), the Nav1.4/Nav1.7 was determined as 19.

For the compound `CC[C@H](C)[C@H](NC(=O)[C@@H](NC(=O)[C@H](CCCCN)NC(=O)[C@H](CCCNC(=N)N)NC(=O)[C@@H]1CSSC[C@@H]2NC(=O)[C@H](C)NC(=O)[C@H](CCCNC(=N)N)NC(=O)[C@H](CCCCN)NC(=O)[C@H](CO)NC(=O)[C@H](CC(=O)O)NC(=O)[C@@H]3CSSC[C@H](NC(=O)[C@H](CCCNC(=N)N)NC(=O)[C@H](CC(C)C)NC(=O)CNC(=O)[C@H](Cc4cccc5ccccc45)NC(=O)[C@H](CSSC[C@H](NC(=O)[C@@H](N)Cc4ccc(O)cc4)C(=O)N[C@@H](CCC(N)=O)C(=O)N[C@@H](CCCCN)C(=O)N[C@@H](Cc4c[nH]c5ccccc45)C(=O)N[C@@H](CCSC)C(=O)N[C@@H](Cc4c[nH]c5ccccc45)C(=O)N[C@@H]([C@@H](C)O)C(=O)N3)NC2=O)C(=O)N[C@@H](CCCCN)C(=O)N[C@@H](CC(C)C)C(=O)N[C@@H](Cc2c[nH]c3ccccc23)C(=O)N1)[C@@H](C)CC)C(N)=O` [compound 37], on hNav1.4 (Table 6), the Nav1.4/Nav1.7 stood at 4.

With `CC[C@H](C)[C@H](NC(=O)[C@@H](NC(=O)[C@H](CCCCN)NC(=O)[C@H](CCCNC(=N)N)NC(=O)[C@@H]1CSSC[C@@H]2NC(=O)[C@H](C)NC(=O)[C@H](CCCNC(=N)N)NC(=O)[C@H](CCCCN)NC(=O)[C@H](CO)NC(=O)[C@H](CC(=O)O)NC(=O)[C@@H]3CSSC[C@H](NC(=O)[C@H](CCC(=O)O)NC(=O)[C@H](CC(C)C)NC(=O)CNC(=O)[C@H](Cc4cn(CCCOCCOCCOCCOCCOCCOCCOCCOCCOCCOCCN)nn4)NC(=O)[C@H](CSSC[C@H](NC(=O)[C@@H](N)Cc4ccc(O)cc4)C(=O)N[C@@H](CCC(N)=O)C(=O)N[C@@H](CCCCN)C(=O)N[C@@H](Cc4c[nH]c5ccccc45)C(=O)N[C@@H](CCSC)C(=O)N[C@@H](Cc4c[nH]c5ccccc45)C(=O)N[C@@H]([C@@H](C)O)C(=O)N3)NC2=O)C(=O)N[C@@H](CCCCN)C(=O)N[C@@H](CC(C)C)C(=O)N[C@@H](Cc2c[nH]c3ccccc23)C(=O)N1)[C@@H](C)CC)C(N)=O` [compound 178], the Nav1.4/Nav1.7 at hNav1.4 (Table 9) was found to be 28.

Consider `CC[C@H](C)[C@H](NC(=O)[C@@H](NC(=O)[C@H](CCCCN)NC(=O)[C@H](CCCNC(=N)N)NC(=O)[C@@H]1CSSC[C@@H]2NC(=O)[C@H](C)NC(=O)[C@H](CCCNC(=N)N)NC(=O)[C@H](CCCCN)NC(=O)[C@H](CO)NC(=O)[C@H](CC(=O)O)NC(=O)[C@@H]3CSSC[C@H](NC(=O)[C@H](CCCNC(=N)N)NC(=O)[C@H](CC(C)C)NC(=O)CNC(=O)[C@H](CCC(=O)O)NC(=O)[C@H](CSSC[C@H](NC(=O)[C@@H](N)Cc4ccc(O)cc4)C(=O)N[C@@H](CCC(N)=O)C(=O)N[C@@H](CCCCN)C(=O)N[C@@H](Cc4c[nH]c5ccccc45)C(=O)N[C@@H](CCSC)C(=O)N[C@@H](Cc4c[nH]c5ccccc45)C(=O)N[C@@H]([C@@H](C)O)C(=O)N3)NC2=O)C(=O)N[C@@H](CCCCN)C(=O)N[C@@H](Cc2cccc3ccccc23)C(=O)N[C@@H](Cc2c[nH]c3ccccc23)C(=O)N1)[C@@H](C)CC)C(N)=O` [compound 42], for which, on hNav1.4 (Table 6), the Nav1.4/Nav1.7 is on record as 3.
